# Source: paper PMC3286601 (Biochemistry, 2012)
# Where two headings read alike, the source gives them in different places.
# Legend:
# [1] = molecular target: T1, wild-type Pseudomonas sp. strain CBS3 4-HB-CoA thioesterase (Pseudomonas sp., UniProt P56653); assay: Steady-state product inhibition of thioesterase-catalyzed hydrolysis of 4-HB-CoA; assay type: biochemical
# T1 sequence (P56653 1-141): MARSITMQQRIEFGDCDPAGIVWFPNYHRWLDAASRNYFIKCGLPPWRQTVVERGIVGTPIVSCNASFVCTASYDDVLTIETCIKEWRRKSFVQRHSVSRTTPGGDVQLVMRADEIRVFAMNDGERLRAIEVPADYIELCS
# [2] = molecular target: T1, wild-type Pseudomonas sp. strain CBS3 4-HB-CoA thioesterase; assay type: biochemical
# [3] = molecular target: T1, wild-type Pseudomonas sp. strain CBS3 4-HB-CoA thioesterase; assay type: biochemical; remark: listed apart in the source
# [4] = molecular target: T1, wild-type Pseudomonas sp. strain CBS3 4-HB-CoA thioesterase; assay: Steady-state multiple-turnover time courses; assay type: biochemical
# [5] = conjugate acid of the CoA thiolate anion leaving group; source not stated; cited from earlier work
# [6] = molecular target: T1, wild-type Pseudomonas sp. strain CBS3 4-HB-CoA thioesterase; assay: Steady-state kinetic constants; assay type: biochemical; details: substrate hydrolysis, pH 7.5, 25 °C
# [7] = molecular target: T1, wild-type Pseudomonas sp. strain CBS3 4-HB-CoA thioesterase; assay: kcat pH rate profiles in H2O and D2O, solvent kinetic isotope effect on kcat; assay type: biochemical; details: for C1 (pH independent kcat plateau) / C2 (pH independent kcat plateau) / first break in kcat pH profile / second break in kcat pH profile: fit to equation 4
# [8] = molecular target: T1, wild-type Pseudomonas sp. strain CBS3 4-HB-CoA thioesterase; assay: Ligand binding to wild-type thioesterase by stopped-flow fluorescence quenching; details: for kobs (apparent pseudo-first order binding rate constant): 0.54 µM thioesterase; for koff: read-out: koff (dissociation rate constant); for kon: read-out: kon (association rate constant)
# D17N thioesterase = details: inert D17N thioesterase complex, steady-state fluorescence quenching; ref [5]; cited from earlier work
smiles,measurement,setting,value
"CC(C)(COP(=O)(O)OP(=O)(O)OC[C@H]1O[C@@H](n2cnc3c(N)ncnc32)[C@H](O)[C@@H]1OP(=O)(O)O)[C@@H](O)C(=O)NCCC(=O)NCCS [CoA, coenzyme A]",Ki,[1],250 ± 70 µM
same,Kii (intercept inhibition constant),"[1]; noncompetitive inhibition of 4-HB-CoA hydrolysis, pH 7.5, 25 °C",900 ± 300 µM
same,Kd,[2],300 µM
same,Kd,[3],300 µM
same,Kd,[4],300 µM
same,pKa of the conjugate acid,[5],9.7
"CC(C)(COP(=O)(O)OP(=O)(O)OC[C@H]1O[C@@H](n2cnc3c(N)ncnc32)[C@H](O)[C@@H]1OP(=O)(O)O)[C@@H](O)C(=O)NCCC(=O)NCCSC(=O)c1ccc(O)cc1 [4-HB-CoA, 4-hydroxybenzoyl-CoA]",steady-state kcat,[6],18 s⁻¹
same,pH independent isotope effect from ratio of C1 values,[7]; H2O/D2O,3.8
same,pH independent isotope effect from ratio of C2 values,[7]; H2O/D2O,3.7
same,C1 (pH independent kcat plateau),[7]; buffered D2O,1.3 ± 0.2
same,C2 (pH independent kcat plateau),[7]; buffered D2O,15 ± 1
same,first break in kcat pH profile,[7]; buffered D2O,5.1 ± 0.1
same,second break in kcat pH profile,[7]; buffered D2O,8.0 ± 0.1
same,C1 (pH independent kcat plateau),[7]; buffered H2O,5.0 ± 0.1
same,C2 (pH independent kcat plateau),[7]; buffered H2O,55 ± 4
same,first break in kcat pH profile,[7]; buffered H2O,5.15 ± 0.09
same,second break in kcat pH profile,[7]; buffered H2O,7.70 ± 0.08
same,D2O solvent kinetic isotope effect (SKIE) on kcat,[7]; pH independent,3.7–3.8
same,Kd,[8],0.2 µM
same,kobs (apparent pseudo-first order binding rate constant),"[8]; 5.0 µM 4-HB-CoA (b38 prints 4.0 µM), pH 7.5, 25 °C",280 ± 30 s⁻¹
same,koff,[8],13 ± 5 s⁻¹
same,kon,[8],6.5e+07 ± 2e+06 M⁻¹ s⁻¹
same,substrate-binding rate k1,[8]; summary value in Conclusions,~ 70 µM^−1s^−1
same,Kd,D17N thioesterase,0.14 µM
"CC(C)(COP(=O)(O)OP(=O)(O)OC[C@H]1O[C@@H](n2cnc3c(N)ncnc32)[C@H](O)[C@@H]1OP(=O)(O)O)[C@@H](O)C(=O)NCCC(=O)NCCSCC(=O)c1ccc(O)cc1 [4-HP-CoA, 4-hydroxyphenacyl-CoA]",Kd,[8],0.33 µM
same,kobs (apparent pseudo-first order binding rate constant),"[8]; 5.3 µM 4-HP-CoA, 50 mM K+HEPES pH 7.5, 25 °C",350 ± 4 s⁻¹
same,koff,[8],20 ± 5 s⁻¹
same,kon,[8],5.9e+07 ± 1e+06 M⁻¹ s⁻¹
"O=C(O)c1ccc(O)cc1 [4-HB, 4-hydroxybenzoate]",Ki,[1],1200 ± 200 µM
